Values of other authors, collected in US7250416B2, “Azacytosine analogs and derivatives” (SuperGen, Inc., priority 2005, dated 2007).
Read-outs that look alike come from different tables or passages of the source.

Columns and labels:
[1] = for steady-state plasma concentration: estimated
cytidine deaminase = target: T1, cytidine deaminase (Homo sapiens, UniProt P32320); conditions: by cytidine deaminase at equal concentrations
T1 construct: the enzyme purified from human liver; from tissue; host or cells: human liver
T1 sequence (P32320 whole entry): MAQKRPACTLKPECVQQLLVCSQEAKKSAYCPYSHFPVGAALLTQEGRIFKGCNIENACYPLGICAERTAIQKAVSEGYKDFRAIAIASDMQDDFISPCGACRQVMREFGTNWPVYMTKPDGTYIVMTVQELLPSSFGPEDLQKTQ

| steady-state plasma concentration ([1]; 6-hour infusion of 100 mg/m^2) [µg/mL] | range of concentrations during infusion ([1]; 600-mg/m^2 infusion) [µg/mL] | half-life after discontinuing the infusion ([1]; humans) [min] | total urinary excretion, % of the administered dose ([1]; humans) | volume of distribution ([1]; humans) | terminal half-life ([1]; humans, measured by bioassay) [min] | steady-state plasma concentration ([1]; infusion rate of 1 mg/kg/h) [µg/mL] | plasma concentration ([1]; infusion times of 40–60 hours, infusion rate 1 mg/kg/h) [ng/mL] | penetration into the cerebrospinal fluid, % of the plasma concentration ([1]; man, end of a 36-hour intravenous infusion) | plasma concentration ([1]; patients, 100 mg/m^2 as a 3-hour infusion) | time of hydrolysis to the amidino-urea derivative (1h) (alkaline medium) | stability in aqueous media (aqueous media, hydrolytic degradation) | maximum infusion time of reconstituted solution (reconstituted aqueous solution stored in the refrigerator for less than 7 hr) [h] | rate of deamination relative to that of decitabine (cytidine deaminase) | SMILES |
| --- | --- | --- | --- | --- | --- | --- | --- | --- | --- | --- | --- | --- | --- | --- |
| 0.31 to 0.39 | 0.41 to 16 | 12 to 20 | less than 1% | about 4.6 L/kg | 10 to 35 | 0.2 to 0.5 | 430 to 760 | 14–21% | about 0.4 μg/ml | within a few minutes | unstable | ≤ 3 |  | Nc1ncn([C@H]2C[C@H](O)[C@@H](CO)O2)c(=O)n1 [decitabine, 5-aza-2′-deoxycytidine] |
|  |  |  |  |  |  |  |  |  |  |  |  |  | about 6 fold | Nc1ccn([C@H]2C[C@H](O)[C@@H](CO)O2)c(=O)n1 [deoxycytidine, 2′-deoxycytidine] |
